Laboratory results reported in article PMC8286840, “Identifying SARS-CoV-2 antiviral compounds by screening for small molecule inhibitors of Nsp3 papain-like protease” (Biochemical Journal, 2021).
Structures can show the parent of a compound that is named as a salt. Where two headings read alike, the source gives them in different places. Where a SMILES comes first, the peptide text is derived from it.

What was measured:
[1] = target: T1, SARS-CoV-2 PLpro (nsp3 1564–1878) (Severe acute respiratory syndrome coronavirus 2, UniProt P0DTD1); assay: biochemical; parameters: FRET-quenched peptide (Pro3) cleavage by PLpro, 10 min pre-incubation, slope over 20 min, normalised to no-compound control; conditions: low concentration screen
[2] = target: T1, SARS-CoV-2 PLpro (nsp3 1564–1878); assay: biochemical; parameters: FRET-quenched peptide (Pro3) cleavage by PLpro, 10 min pre-incubation, slope over 20 min, normalised to no-compound control; conditions: high concentration screen
[3] = Well no.=2265, read-out: % of control remaining
[4] = Well no.=4686, read-out: % of control remaining
[5] = Well no.=3284, read-out: % of control remaining
[6] = Well no.=3277, read-out: % of control remaining
[7] = Well no.=1181, read-out: % of control remaining
[8] = Well no.=5837, read-out: % of control remaining
[9] = Well no.=4645, read-out: % of control remaining
[10] = Well no.=6592, read-out: % of control remaining
[11] = Well no.=6346, read-out: % of control remaining
[12] = Well no.=364, read-out: % of control remaining
[13] = Well no.=8722, read-out: % of control remaining
[14] = Well no.=1948, read-out: % of control remaining
[15] = Well no.=201, read-out: % of control remaining
[16] = Well no.=5095, read-out: % of control remaining
[17] = Well no.=8012, read-out: % of control remaining
[18] = Well no.=8342, read-out: % of control remaining
[19] = Well no.=4721, read-out: % of control remaining
[20] = Well no.=5588, read-out: % of control remaining
[21] = Well no.=1338, read-out: % of control remaining
[22] = Well no.=1769, read-out: % of control remaining
[23] = Well no.=6843, read-out: % of control remaining
[24] = Well no.=7135, read-out: % of control remaining
[25] = Well no.=8459, read-out: % of control remaining
[26] = Well no.=6291, read-out: % of control remaining
[27] = Well no.=8754, read-out: % of control remaining
[28] = Well no.=7376, read-out: % of control remaining
[29] = Well no.=8239, read-out: % of control remaining
[30] = Well no.=7156, read-out: % of control remaining
[31] = Well no.=8596, read-out: % of control remaining
[32] = Well no.=3153, read-out: % of control remaining
[33] = Well no.=5422, read-out: % of control remaining
[34] = Well no.=7747, read-out: % of control remaining
[35] = Well no.=4902, read-out: % of control remaining
[36] = read-out: % of control remaining, Well no.=271
[37] = read-out: % of control remaining, Well no.=2171
[38] = read-out: % of control remaining, Well no.=6566
[39] = Well no.=6206, read-out: % of control remaining

SMILES: CN(C)CCCC1(c2ccc(F)cc2)OCc2cc(C#N)ccc21 (centres unmarked) [Citalopram]
- remaining activity at 1.25 µM [1, 3]: 97.4%
- remaining activity at 3.75 µM [2, 3]: 103%

SMILES: CC(=O)/N=c1/sc(S(N)(=O)=O)nn1C [Methazolamide]
- remaining activity at 1.25 µM [1, 4]: 100%
- remaining activity at 3.75 µM [2, 4]: 98.7%

SMILES: CN(C)Cc1c[nH]c2ccccc12 [Gramine]
- remaining activity at 1.25 µM [1, 5]: 97.9%
- remaining activity at 3.75 µM [2, 5]: 99.5%

SMILES: Oc1cc(O)c2c(c1)O[C@H](c1cc(O)c(O)c(O)c1)[C@H](O)C2 [Epigallocatechin]
- remaining activity at 1.25 µM [1, 6]: 102%
- remaining activity at 3.75 µM [2, 6]: 101%

SMILES: COc1ccccc1N1CCNCC1 [1-(2-Methoxyphenyl)piperazine hydrochloride]
- remaining activity at 1.25 µM [1, 7]: 104%
- remaining activity at 3.75 µM [2, 7]: 102%

SMILES: COc1ccc(C2(C#N)CCC(C(=O)O)CC2)cc1OC1CCCC1 (centres unmarked) [4-cyano-4-[3-(cyclopentyloxy)-4-methoxyphenyl]cyclohexanecarboxylic acid]
- remaining activity at 1.25 µM [1, 8]: 101%
- remaining activity at 3.75 µM [2, 8]: 99.9%

SMILES: COC(=O)Nc1ccc(-c2nc(N3CCOCC3)c3cnn(C4CCN(Cc5cccnc5)CC4)c3n2)cc1 [WYE-687]
- remaining activity at 1.25 µM [1, 9]: 104%
- remaining activity at 3.75 µM [2, 9]: 103%

SMILES: Cc1c(-c2ccc(N3CCc4cccc(C(=O)Nc5nc6ccccc6s5)c4C3)nc2C(=O)O)cnn1CC12CC3CC(CC(C3)C1)C2 [A-1331852]
- remaining activity at 1.25 µM [1, 10]: 102%
- remaining activity at 3.75 µM [2, 10]: 93.5%

SMILES: NC(=O)c1ccc(-c2cc(-c3ccc([N+](=O)[O-])cc3)nc(-c3ccco3)c2)cc1 [KJ Pyr 9]
- remaining activity at 1.25 µM [1, 11]: 99.3%
- remaining activity at 3.75 µM [2, 11]: 101%

SMILES: COC(=O)C(N)Cc1ccc(Cl)cc1 (racemic) [DL-p-Chlorophenylalanine methyl ester hydrochloride]
- remaining activity at 1.25 µM [1, 12]: 95.9%
- remaining activity at 3.75 µM [2, 12]: 91.1%

SMILES: NS(=O)(=O)NCCNc1nonc1/C(=N/O)Nc1ccc(F)c(Br)c1 [Epacadostat (INCB024360)]
- remaining activity at 1.25 µM [1, 13]: 99.6%
- remaining activity at 3.75 µM [2, 13]: 95.9%

SMILES: CN(C)[C@@H]1C(O)=C(C(N)=O)C(=O)[C@@]2(O)C(O)=C3C(=O)c4c(O)cccc4[C@@](C)(O)[C@H]3C[C@@H]12 [Tetracycline]
- remaining activity at 1.25 µM [1, 14]: 95.4%
- remaining activity at 3.75 µM [2, 14]: 93.7%

SMILES: CC(=O)NCCc1c[nH]c2ccc(O)cc12 [N-Acetyl-5-hydroxytryptamine]
- remaining activity at 1.25 µM [1, 15]: 102%
- remaining activity at 3.75 µM [2, 15]: 103%

SMILES: C/C(=C\C(=O)Nc1ccccc1C(=O)O)c1ccc2ccccc2c1 [BIBR 1532]
- remaining activity at 1.25 µM [1, 16]: 103%
- remaining activity at 3.75 µM [2, 16]: 106%

SMILES: Cc1cn([C@H]2O[C@@H](CO)[C@H](O)[C@H]2F)c(=O)[nH]c1=O [Clevudine]
- remaining activity at 1.25 µM [1, 17]: 98%
- remaining activity at 1.25 µM [1, 18]: 92.4%
- remaining activity at 3.75 µM [2, 17]: 100%
- remaining activity at 3.75 µM [2, 18]: 91.2%

SMILES: CC(C)c1nc(CN(C)C(=O)N[C@H](C(=O)N[C@@H](Cc2ccccc2)C[C@H](O)[C@H](Cc2ccccc2)NC(=O)OCc2cncs2)C(C)C)cs1 [Ritonavir]
- remaining activity at 1.25 µM [1, 19]: 102%
- remaining activity at 3.75 µM [2, 19]: 102%

SMILES: O=C(NO)c1cccc(C(=O)NCCc2ccccc2)c1 [BRD73954]
- remaining activity at 1.25 µM [1, 20]: 99.7%
- remaining activity at 3.75 µM [2, 20]: 92.7%

SMILES: COc1cc2ncnc(Nc3ccc(O)cc3)c2cc1OC [WHI-P131]
- remaining activity at 1.25 µM [1, 21]: 93.8%
- remaining activity at 3.75 µM [2, 21]: 97.1%

SMILES: CC(C)OC(=O)CCC/C=C\C[C@@H]1[C@@H](CC[C@@H](O)CCc2ccccc2)[C@H](O)C[C@@H]1O [Latanoprost]
- remaining activity at 1.25 µM [1, 22]: 97.5%
- remaining activity at 1.25 µM [1, 23]: 100%
- remaining activity at 3.75 µM [2, 22]: 95.3%
- remaining activity at 3.75 µM [2, 23]: 98.9%

SMILES: c1ccc(NCc2ccc(CNc3ccccn3)cc2)nc1 [WZ811]
- remaining activity at 1.25 µM [1, 24]: 102%
- remaining activity at 1.25 µM [1, 25]: 98.2%
- remaining activity at 3.75 µM [2, 24]: 96.2%
- remaining activity at 3.75 µM [2, 25]: 88.4%

SMILES: CC(C)C[C@H](N)C(=O)N[C@@H](Cc1ccccc1)C(=O)O [Leucyl-phenylalanine] (H-Leu-Phe-OH)
- remaining activity at 1.25 µM [1, 26]: 104%
- remaining activity at 1.25 µM [1, 27]: 87.2%
- remaining activity at 3.75 µM [2, 26]: 102%
- remaining activity at 3.75 µM [2, 27]: 87.4%

SMILES: CSc1ccc2c(c1)N(CCC1CCCCN1C)c1ccccc1S2 (centres unmarked) [Thioridazine (hydrochloride)]
- remaining activity at 1.25 µM [1, 28]: 97.9%
- remaining activity at 3.75 µM [2, 28]: 98.1%

SMILES: CCCCc1nc(Cl)c(CO)n1Cc1ccc(-c2ccccc2-c2nnn[nH]2)cc1 [Losartan (potassium)]
- remaining activity at 1.25 µM [1, 29]: 101%
- remaining activity at 3.75 µM [2, 29]: 104%

SMILES: CC[C@H](C(=O)N1CCCC[C@H]1C(=O)O[C@H](CCc1ccc(OC)c(OC)c1)c1cccc(OCC(=O)NCCNC(=O)COc2cccc([C@@H](CCc3ccc(OC)c(OC)c3)OC(=O)[C@@H]3CCCCN3C(=O)[C@@H](CC)c3cc(OC)c(OC)c(OC)c3)c2)c1)c1cc(OC)c(OC)c(OC)c1 [Rimiducid]
- remaining activity at 1.25 µM [1, 30]: 94.6%
- remaining activity at 1.25 µM [1, 31]: 96.4%
- remaining activity at 3.75 µM [2, 30]: 91.8%
- remaining activity at 3.75 µM [2, 31]: 89.6%

SMILES: CCN1C[C@]2(C)CC[C@H](OC)[C@]34C1[C@H]([C@@H](O)[C@H]23)[C@@]1(O)CC[C@H]2C[C@@H]4[C@@H]1C(=O)O2 [Heteratisine]
- remaining activity at 1.25 µM [1, 32]: 102%
- remaining activity at 3.75 µM [2, 32]: 105%

SMILES: O[C@@H]1[C@@H](O)[C@H](OC/C=C/c2ccccc2)O[C@H](CO[C@@H]2OC[C@H](O)[C@H](O)[C@H]2O)[C@H]1O [Rosavin]
- remaining activity at 1.25 µM [1, 33]: 101%
- remaining activity at 3.75 µM [2, 33]: 104%

SMILES: C[C@H](N)C(=O)O [_-Alanine]
- remaining activity at 1.25 µM [1, 34]: 103%
- remaining activity at 3.75 µM [2, 34]: 107%

SMILES: C[C@@H]1CC(=O)NN=C1c1ccc(NN=C(C#N)C#N)cc1 [Levosimendan]
- remaining activity at 1.25 µM [1, 35]: 101%
- remaining activity at 3.75 µM [2, 35]: 97.8%

SMILES: C[C@H]1C[C@H]2[C@@H]3CCC4=CC(=O)C=C[C@]4(C)[C@@]3(F)[C@@H](O)C[C@]2(C)[C@@]1(O)C(=O)CO [Betamethasone]
- remaining activity at 1.25 µM [1, 36]: 97.7%
- remaining activity at 1.25 µM [1, 37]: 93.5%
- remaining activity at 1.25 µM [1, 38]: 94.8%
- remaining activity at 3.75 µM [2, 36]: 95.6%
- remaining activity at 3.75 µM [2, 37]: 93.7%
- remaining activity at 3.75 µM [2, 38]: 95.4%

SMILES: CC(C)(C)S(=O)(=O)c1ccc2nccc(Nc3n[nH]c4ccc(F)cc34)c2c1 [GSK583]
- remaining activity at 1.25 µM [1, 39]: 101%
- remaining activity at 3.75 µM [2, 39]: 94.3%
